Data reported in patent US10076525B2, “Sex steroid precursors alone or in combination with selective estrogen receptor modulators for the prevention and treatment of dyspareunia in postmenopausal women” (ENDORECHERCHE, INC., priority 2004, dated 2018).

What was measured:
[1] = Serum concentration of DHEA after intravaginal application; type: in vivo; conditions: female, rat
From the text: (§1) The insertion into the vagina of one suppository began on day 5 of the study and was continued once daily until day 18 of the study, for a total of 14 days of treatment. The suppository was gently placed in the vaginal opening and then delicately pushed about 2-3 mm inside the vagina with the help of a small, smooth glass stick, disinfected in 70% alcohol and dried between each animal.

rat vagina [2] = conditions: ovariectomized rat, DHEA 30 mg twice daily on dorsal skin, one, three or six months; cited from earlier work
[3] = Body weight after 14-day intravaginal DHEA suppository; type: in vivo, rat; conditions: OVX rats, 14 days
From the text: (§2) The animals were housed individually and were allowed free access to water and rodent food (Lab Diet 5002, Ralston Purina, St-Louis, Mo.).
as §1

rat vagina [4] = test: Histomorphometry: thickness of vaginal layers at the fifth segment; type: in vivo; conditions: OVX rats, 36 wk
From the text: (§3) Animals from the intact and OVX control groups received the vehicle alone.
(§4) Twenty-four hours after the last dosing, overnight fasted animals were sacrificed under isoflurane anesthesia by exsanguination at the abdominal aorta (9 animals per group) or by intracardiac perfusion with 10% neutral buffered formalin (5 animals per group). Vaginae from non-perfused animals were collected and weighed, while the vaginae collected from perfused animals were marked with black ink on the ventral side, and then trimmed as described below.
The entire vagina of each perfused animal was post-fixed in 10% neutral buffered formalin.
Measurements of the different vaginal layers were performed on the fifth segment (FIG. 1), which is approximately halfway between the middle region and the portio vaginalis uteri (segment 7). […] Images were captured with a DC-330 3CCD color camera (Dage-MTI, Michigan City, Ind., USA) and quantified using Image-Pro Plus 3.0 software (Media Cybernetics, Silver Spring, Md., USA). Thus, using a ×5 objective (Leica Microsystems, Willowdale, Ont., Canada), 3 to 4 thickness measurements per layer were obtained from representative areas of the epithelium and muscularis, and for the three vaginal layers together. The total vaginal thickness, the thickness of the epithelium and the thickness of the muscularis were thus measured. The thickness of the lamina propria was obtained by subtracting the thickness of the epithelium and muscularis from total vaginal thickness.
(§5) Data are presented as means±SEM of 8-9 animals per group for vaginal weight or 5 animals per group for vaginal layer thickness determinations. Statistical significance was determined according to the multiple-range test of Duncan-Kramer (Kramer, 1956, Biometrics, 12: 307-310).

[5] = DHEA blood levels after topical DHEA (Example 1); type: in vivo, rat; conditions: DHEA 80 mg/kg topically on dorsal skin, rats
From the text: as §3

rat vagina [6] = test: Vaginal weight after 36 weeks of treatment; type: in vivo; conditions: OVX rats, 36 wk, mean±SEM; OVX 101±5, intact 205±11
From the text: as §3, §4, §5

rat vagina [7] = test: Intravaginal DHEA suppository: vaginal epithelium morphology in OVX rats (Example 3); type: in vivo; conditions: 14 days
From the text: as §2, §1
Vagina—including the urethra—and uterus were collected, and then trimmed as described below. For further analysis, two pieces of inguinal mammary gland were sampled, as well as a square piece of about 2 X 2 cm of shaved dorsal skin, the latter being put and gently flattened on a piece of carton.
Any other lipophilic base such as Fattibase, Wecobee, cocoa butter, theobroma oil or other combinations of Whitepsol bases could also be used. […] The proper amount of suppository base pellets to weight in order to obtain the final volume needed was calculated based on the previously measured density of the suppository base, which was 47.5 mg per 50 μl. The suppository base was put in a small beaker, melted in microwave at power 50% for about 3 min and 30 sec and then transferred on a heating plate, which was adjusted at the lowest power in order to keep the suppository base at a temperature of 50±3° C. […] These moulds were made from microcentrifuge tubes, each of them previously calibrated with 50 μl of water and cut at the level of the line drawn at the water surface. After 30 min of cooling at room temperature, the suppositories were put at 4° C. for another 30 min. Finally, the excess of base was trimmed with a razor blade and the suppositories were removed from their moulds and stored in closed glass bottles at 4° C. until use. They were allowed to reach room temperature before being applied to the animals.
The organs were immersed in 10% neutral buffered formalin immediately after resection. Each vagina and uterus was divided into 8 equal cross-segments and 4 cross-segments including two from the cervix and two from each of the two proximal and distal horns, respectively. The segments were then routinely processed and embedded all together in the same paraffin block.
Segment 6 represented the deeper vaginal mucosa and is separated from the uterine cervix by only one segment.

ERα = test: Immunohistochemistry of ERα in fifth vaginal segment; type: in vivo, rat; conditions: OVX rats, 36 wk
Protocol: as §3
Immunostaining was performed using Zymed SP kits (San Francisco, Calif.). Paraffin sections (4 μm) were deparaffinized in toluene and rehydrated through ethanol. Endogenous peroxidase activity was eliminated by preincubation with 3% H2O2 in methanol for 30 min. A microwave retrieval technique using citrate buffer (Tacha and Chen, 1994) was applied. After cooling the slides, non-specific binding was blocked using 10% goat serum for 20 min. Sections were then incubated for 1.5 h at room temperature with ERα (AB-1, Calbiochem, California), AR (N-20, Santa Cruz Biotechnology, California) or PR (Ab-4, NeoMarkers, California) antibodies, at 1:200, 1:250 and 1:250 respectively. After washing in PBS buffer, sections were incubated with biotinylated anti-rabbit secondary antibody for 10 min and thereafter with streptavidin-peroxidase for another 10 min. Diaminobenzidine was used as the chromogen to visualize the biotin/streptavidin-peroxidase complex, under microscope monitoring. Counterstaining was performed using #2 Gill's hematoxylin for 30 sec. For controls, immunoabsorption with an excess of the peptide used to raise the antibody, or substitution with non immune rabbit IgG, was performed.

## C[C@]12CC[C@H](O)CC1=CC[C@@H]1[C@@H]2CC[C@]2(C)C(=O)CC[C@@H]12 [DHEA, dehydroepiandrosterone]
[1]; 0.33 mg
  AUC: 32 ± 4 ng·h/mL
[1]; 0.66 mg
  AUC: 50 ± 7 ng·h/mL
[1]; 1 mg
  AUC: 131 ± 23 ng·h/mL
Rat vagina [2]
  histopathologic examination of the vagina: reversal of vaginal mucosal atrophy
[3]; DHEA 0.33 mg suppository intravaginal
  body weight compared with placebo group: slightly decreased
[3]; DHEA 0.66 mg suppository intravaginal
  body weight compared with placebo group: slightly decreased
[3]; DHEA 1 mg suppository intravaginal
  decrease of body weight compared with placebo group: more pronounced
Rat vagina [4]; fifth segment
  total vaginal thickness lower than that of the Premarin alone-treated group: about 25%
Rat vagina [4]; fifth segment, mean±SEM
  muscularis thickness: 50±2 μm
  thickness of the vaginal epithelium: 38±4 μm
Rat vagina [4]; fifth segment, mean±SEM, OVX 128±3, intact 262±39
  total vaginal wall thickness: 184±21 μm
Rat vagina [4]; fifth segment, mean±SEM, total minus epithelium and muscularis, OVX 76±2, intact 135±28
  lamina propria thickness: 96±20 μm
Rat vagina [4]; 46% decrease after OVX
  reversal of the OVX-induced decrease of the vaginal muscular layer: 41%
Rat vagina [4]; 50% decrease after OVX
  reversal of the OVX-induced decrease in total vaginal wall thickness: 42%
[5]
  DHEA blood levels: 70 to 100 nmol/L
Rat vagina [6]
  vaginal weight: 171 ± 12 mg
Rat vagina [7]; DHEA 0.33 mg/suppository intravaginal, segment 6
  vaginal epithelium thickness: 2-5 cell layers
Rat vagina [7]; DHEA 0.33 mg/suppository, unevenly distributed over the whole vagina
  animals displaying mild inflammation: four
Rat vagina [7]; DHEA 0.66 mg/suppository, three external segments
  animals displaying mild inflammation: two
Rat vagina [7]; DHEA 1.00 mg/suppository, four external segments
  animals displaying mild inflammation: four
ERα; epithelium
  ERα: labeling intensity: ++
  ERα: semi-quantitative evaluation of labeled nuclei: 2
ERα; lamina propria
  ERα: labeling intensity: +++
  ERα: semi-quantitative evaluation of labeled nuclei: 2
ERα; muscularis
  ERα: labeling intensity: +++
  ERα: semi-quantitative evaluation of labeled nuclei: 3
